Reference: patent US9353104B2, “Substituted pyridizinone derivatives as PDE10 inhibitors” (priority 2013, dated 2016)

Molecular target: human PDE10A2 (Homo sapiens (Human), UniProt Q9Y233)
Assay: PDE10 fluorescence polarization (IMAP FP) inhibition assay
Format: biochemical
Settings: human PDE10A2 lysate, FAM-labeled cAMP 50 nM, room temperature; read-out: PDE10A Ki
Procedure: The activity of the compounds in accordance with the present invention as PDE10 inhibitors may be readily determined without undue experimentation using a fluorescence polarization (FP) methodology that is well known in the art (Huang, W., et al., J. Biomol Screen, 2002, 7: 215). […] In a typical experiment the PDE10 inhibitory activity of the compounds of the present invention was determined in accordance with the following experimental method. PDE10A2 was amplified from human fetal brain cDNA (Clontech, Mountain View, Calif.) using a forward primer corresponding to nucleotides 56-77 of human PDE10A2 (Accession No. AF127480, Genbank Identifier 4894716), containing a Kozak consensus sequence, and a reverse primer corresponding to nucleotides 2406-2413 of human PDE10A2 (Accession No. AF127480, Genbank Identifier 4894716). Amplification with Easy-A polymerase (Stratagene, La Jolla, Calif.) was 95° C. for 2 minutes followed by thirty three cycles of 95° C. for 40 seconds, 55° C. for 30 seconds, and 72° C. for 2 minutes 48 seconds. Final extension was 72° C. for 7 minutes. The PCR product was TA cloned into pcDNA3.2-TOPO (Invitrogen, Carlsbad, Calif.) according to standard protocol. AD293 cells with 70-80% confluency were transiently transfected with human PDE10A2/pcDNA3.2-TOPO using Lipofectamine 2000 according to manufacturer specifications (Invitrogen, Carlsbad, Calif.). Cells were harvested 48 hours post-transfection and lysed by sonication (setting 3, 10×5 sec pulses) in a buffer containing 20 mM HEPES, 1 mM EDTA and protease inhibitor cocktail (Roche). Lysate was collected by centrifugation at 75,000×g for 20 minutes. Supernatant containing the cytoplasmic fraction was used for evaluation of PDE10A2 activity. The fluorescence polarization assay for cyclic nucleotide phosphodiesterases was performed using an IMAP® FP kit supplied by Molecular Devices, Sunnyvale, Calif. (product #R8139). IMAP® technology has been applied previously to phosphodiesterase assays (Huang, W., et al., J. Biomol Screen, 2002, 7: 215). Assays were performed at room temperature in 384-well microtiter plates with an incubation volume of 20.2 μL. Solutions of test compounds were prepared in DMSO and serially diluted with DMSO to yield 8 μL of each of 10 solutions differing by 3-fold in concentration, at 32 serial dilutions per plate. 100% inhibition is determined using a known PDE10 inhibitor, which can be any compound that is present at 5,000 times its Ki value in the assay described as follows, such as papaverine (see Siuciak, et al. Neuropharmacology (2006) 51:386-396; Becker, et al. Behav Brain Res (2008) 186(2):155-60; Threlfell, et al., J Pharmacol Exp Ther (2009) 328(3):785-795), 2-{4-[pyridin-4-yl-1-(2,2,2-trifluoroethyl)-1H-pyrazol-3-yl]phenoxymethyl}quinoline succinic acid or 2-[4-(1-methyl-4-pyridin-4-yl-1H-pyrazol-3-yl)-phenoxymethyl]quinoline succinic acid (see Schmidt, et al. J Pharmacol Exp Ther (2008) 325:681-690; Threlfell, et al., J Pharmacol Exp Ther (2009) 328(3): 785-795). 0% of inhibition is determined by using DMSO (1% final concentrations).
A Labcyte Echo 555 (Labcyte, Sunnyvale, Calif.) is used to dispense 200 nL from each well of the titration plate to the 384 well assay plate. A solution of enzyme (1/1600 dilution from aliquots; sufficient to produce 20% substrate conversion) and a separate solution of FAM-labeled cAMP PDE from Molecular Devices (product #R7506), at a final concentration of 50 nM are made in the assay buffer (10 mM Tris HCl, pH 7.2, 10 mM MgCl2, 0.05% NaN3 0.01% Tween-20, and 1 mM DTT). The enzyme and the substrate are then added to the assay plates in two consecutive additions of 10 μL, and then shaken to mix. The reaction is allowed to proceed at room temperature for 30 minutes. A binding solution is then made from the kit components, comprised of 80% Solution A, 20% Solution B and binding reagent at a volume of 1/600 the total binding solution.

human PDE10A2, sequence (Q9Y233 267-1055): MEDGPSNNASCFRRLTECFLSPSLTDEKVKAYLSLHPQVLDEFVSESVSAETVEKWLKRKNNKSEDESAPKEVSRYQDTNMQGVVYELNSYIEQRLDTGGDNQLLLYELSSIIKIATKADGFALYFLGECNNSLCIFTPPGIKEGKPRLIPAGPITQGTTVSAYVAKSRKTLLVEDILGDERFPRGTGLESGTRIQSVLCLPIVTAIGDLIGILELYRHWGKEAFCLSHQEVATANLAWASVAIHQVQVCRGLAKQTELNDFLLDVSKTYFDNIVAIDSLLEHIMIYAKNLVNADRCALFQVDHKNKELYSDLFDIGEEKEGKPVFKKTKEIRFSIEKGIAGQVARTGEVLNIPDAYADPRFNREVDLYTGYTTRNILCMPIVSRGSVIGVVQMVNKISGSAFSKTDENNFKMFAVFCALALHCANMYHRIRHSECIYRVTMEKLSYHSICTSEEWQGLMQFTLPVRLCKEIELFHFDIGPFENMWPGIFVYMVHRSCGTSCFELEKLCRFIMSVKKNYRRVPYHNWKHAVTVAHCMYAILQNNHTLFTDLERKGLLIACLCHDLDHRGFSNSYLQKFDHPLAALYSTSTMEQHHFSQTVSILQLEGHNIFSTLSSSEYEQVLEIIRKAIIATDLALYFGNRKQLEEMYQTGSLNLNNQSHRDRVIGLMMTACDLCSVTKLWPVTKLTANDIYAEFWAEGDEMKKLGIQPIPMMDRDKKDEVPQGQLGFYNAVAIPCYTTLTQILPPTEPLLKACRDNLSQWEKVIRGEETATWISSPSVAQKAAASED

Row | SMILES | Ki
1 | Cc1ccc([C@H]2C[C@@H]2COc2cc(NCc3ncc(C)s3)c(=O)n(C)n2)nc1 [Example 31, 2-methyl-6-(((1S,2S)-2-(5-methylpyridin-2-yl)cyclopropyl)methoxy)-4-((5-methylthiazol-2-yl)methylamino)pyridazin-3(2H)-one] | 7 pM
2 | COc1ccc([C@H]2C[C@@H]2COc2cc(NCc3cccnc3C)c(=O)n(C)n2)nc1 [Example 65, 6-(((1S,2S)-2-(5-methoxy-pyridin-2-yl)cyclopropyl-)-methoxy)-2-methyl-4-(((2-methylpyridin-3-yl)-methyl)amino)pyridazin-3(2H)-one] | 53 pM
3 | Cc1ccc([C@H]2C[C@@H]2COc2cc(NCc3ccc(C)nc3C)c(=O)n(C)n2)nc1 [Example 52, 4-(((2,6-dimethylpyridin-3-yl)methyl)amino)-2-methyl-6-(((1S,2S)-2-(5-methylpyridin-2-yl)cyclopropyl)methoxy)-pyridazin-3(2H)-one] | 7 pM
4 | COc1ccc(CNc2cc(OC[C@H]3C[C@@H]3c3ccc(F)cn3)nn(C)c2=O)cc1 [Example 15, 6-(((1S,2S)-2-(5-fluoro-pyridin-2-yl)-cyclopropyl-)-methoxy)-4-(4-methoxy-benzylamino)-2-methyl-pyridazin-3(2H)-one] | 1290 pM
5 | Cc1cnc(CNc2cc(OC[C@@H]3C[C@H]3c3nn(C)c4ccccc34)nn(C)c2=O)s1 [Example 114, 2-methyl-6-(((1R,2R)-2-(1-methyl-1H-indazol-3-yl)cyclopropyl)methoxy)-4-((5-methylthiazol-2-yl)methylamino)pyridazin-3(2H)-one] | 118 pM
6 | Cc1ncc(CNc2cc(OC[C@H]3C[C@@H]3c3nn(C)c4ccccc34)nn(C)c2=O)s1 [Example 109, 2-methyl-6-(((1S,2S)-2-(1-methyl-1H-indazol-3-yl)cyclopropyl)methoxy)-4-((2-methylthiazol-5-yl)methylamino)pyridazin-3(2H)-one] | 2150 pM
7 | Cc1cc(CNc2cc(OC[C@H]3C[C@@H]3c3ccn(C)n3)nn(C)c2=O)nn1C [Example 129, 4-((1,5-dimethyl-1H-pyrazol-3-yl)methylamino)-2-methyl-6-(((1S,2S)-2-(1-methyl-1H-pyrazol-3-yl)cyclopropyl)methoxy) pyridazin-3(2H)-one] | 3600 pM
8 | COc1ccc([C@H]2C[C@@H]2COc2cc(NCc3ccc(C)c(C)n3)c(=O)n(C)n2)nc1 [Example 69, 4-(((5,6-dimethylpyridin-2-yl)methyl)amino)-6-(((1S,2S)-2-(5-methoxy-pyridin-2-yl)cyclopropyl-)-methoxy)-2-methyl-pyridazin-3(2H)-one] | 410 pM
9 | Cc1nnc(CNc2cc(OC[C@H]3C[C@@H]3c3ccc(OC(F)F)cn3)nn(C)c2=O)s1 [Example 5, 6-(((1S,2S)-2-(5-(difluoromethoxy)pyridin-2-yl)cyclopropyl)methoxy-)-2-methyl-4-((5-methyl-1,3,4-thiadiazol-2-yl)-methylamino)pyridazin-3(2H)-one] | 157 pM
10 | Cc1ccc([C@H]2C[C@@H]2COc2cc(NCc3cc(C)nn3C)c(=O)n(C)n2)nc1 [Example 14, 4-((1,3-dimethyl-1H-pyrazol-5-yl)methylamino-)-2-methyl-6-(((1S,2S)-2-(5-methylpyridin-2-yl)cyclopropyl)methoxy)-pyridazin-3(2H)-one] | 3 pM
11 | Cc1noc(C)c1CNc1cc(OC[C@H]2C[C@@H]2c2ccn(C)n2)nn(C)c1=O [Example 61, 4-(((3,5-dimethylisoxazol-4-yl)methyl)amino)-2-methyl-6-(((1S,2S)-2-(1-methyl-1H-pyrazol-3-yl)cyclopropyl)methoxy)-pyridazin-3(2H)-one] | 4100 pM
12 | Cc1nc(CNc2cc(OC[C@H]3C[C@@H]3c3ccn(C)n3)nn(C)c2=O)cs1 [Example 48] | > 100000 pM
13 | COc1ccc([C@H]2C[C@@H]2COc2cc(NCCc3nccs3)c(=O)n(C)n2)nc1 [Example 136, 6-(((1S,2S)-2-(5-methoxy-pyridin-2-yl)cyclopropyl-)methoxy)-2-methyl-4-(2-(thiazol-2-yl)ethylamino-)pyridazin-3(2H)-one] | 10300 pM
14 | COc1ccc([C@H]2C[C@@H]2COc2cc(NCc3cnn(C)n3)c(=O)n(C)n2)nc1 [Example 148, 6-(((1S,2S)-2-(5-methoxypyridin-2-yl)cyclopropyl)methoxy)-2-methyl-4-((2-methyl-2H-1,2,3-triazol-4-yl)methylamino)pyridazin-3(2H)-one] | 648 pM
15 | COc1ccc([C@H]2C[C@@H]2COc2cc(NCc3cc(C)nn3C)c(=O)n(C)n2)nc1 [Example 132, 4-((1,3-dimethyl-1H-pyrazol-5-yl)methyl-amino)-6-(((1S,2S)-2-(5-methoxypyridin-2-yl)-cyclopropyl)methoxy)-2-methylpyridazin-3(2H)one] | 2 pM
16 | Cn1ccc([C@H]2C[C@@H]2COc2cc(NCc3ccnn3C)c(=O)n(C)n2)n1 [Example 98, 2-methyl-6-(((1S,2S)-2-(1-methyl-1H-pyrazol-3-yl)cyclopropyl)methoxy)-4-(((1-methyl-1H-pyrazol-5-yl)methyl)amino)-pyridazin-3(2H)-one] | 1500 pM
17 | Cc1ccc([C@H]2C[C@@H]2COc2cc(NCc3cnn4ccccc34)c(=O)n(C)n2)nc1 [Example 79, 2-methyl-6-(((1S,2S)-2-(5-methylpyridin-2-yl)cyclopropyl)methoxy)-4-((pyrazolo[1,5-a]pyridin-3-ylmethyl)amino)-pyridazin-3(2H)-one] | 1100 pM
18 | COc1ccc([C@H]2C[C@@H]2COc2cc(NCc3cn(C)nc3C)c(=O)n(C)n2)nc1 [Example 37, 4-((1,3-dimethyl-1H-pyrazol-4-yl)methyl-amino)-6-(((1S,2S)-2-(5-methoxypyridin-2-yl)cyclopropyl)methoxy)-2-methylpyridazin-3(2H)-one] | 9 pM
19 | Cc1cnc(CNc2cc(OC[C@H]3C[C@@H]3c3ccn(C)n3)nn(C)c2=O)s1 [Example 26, 2-methyl-6-(((1S,2S)-2-(1-methyl-1H-pyrazol-3-yl)cyclopropyl)methoxy)-4-((5-methylthiazol-2-yl)methylamino)pyridazin-3(2H)-one] | 97 pM
20 | Cc1ccc(CNc2cc(OC[C@H]3C[C@@H]3c3ccc(OC(F)F)cn3)nn(C)c2=O)c(C)n1 [Example 58, 6-(((1S,2S)-2-(5-(difluoromethoxy)pyridin-2-yl)cyclopropyl)-methoxy)-4-(((2,6-di-methylpyridin-3-yl)-methyl)amino)-2-methyl-pyridazin-3(2H)-one] | 28 pM
21 | Cc1nnc(CN(C)c2cc(OC[C@H]3C[C@@H]3c3ccc4ccccc4n3)nn(C)c2=O)s1 [Example 36, 2-methyl-4-(methyl((5-methyl-1,3,4-thiadiazol-2-yl)methyl)amino)-6-(((1S,2S)-2-(quinolin-2-yl)cyclopropyl)methoxy)-pyridazin-3(2H)-one] | 911 pM
22 | Cc1ccc([C@H]2C[C@@H]2COc2cc(NCc3cnn(C)c3)c(=O)n(C)n2)nc1 [Example 10, 2-methyl-4-((1-methyl-1H-pyrazol-4-yl)methylamino)-6-(((1S,2S)-2-(5-methylpyridin-2-yl)cyclopropyl)methoxy)-pyridazin-3(2H)-one] | 72 pM
23 | Cc1nnc(CNc2cc(OC[C@H]3C[C@@H]3c3ccc(F)cn3)nn(C)c2=O)s1 [Example 7, 6-(((1S,2S)-2-(5-fluoropyridin-2-yl)cyclo-propyl)methoxy)-2-methyl-4-((5-methyl-1,3,4-thiadiazol-2-yl)methyl-amino)pyridazin-3(2H)one] | 535 pM
